Measurements published in patent US11299435B2, “Urea-based composition and method for the manufacture thereof” (Yara International ASA, priority 2017, dated 2022).

Legend:
Format in all cases: physicochemical
[1] = Stability of nBTPT in solution with added alkaline compound (HPLC nBTPT content); conditions: closed plastic containers
Description: Lab scale experiments with nBTPT in solution: • An aqueous solution of nBTPT was made by dissolving 3 g nBTPT powder in 1 L water. In a next step an alkaline compound could be added. • A solution of 17.5% nBTPT in PG was made by dissolving step by step 17.5 g nBTPT powder in 82.5 g PG. In a next step, an alkaline compound could be added. • The commercial liquid nBTPT formulation Agrotain® Ultra was mixed with and/or without the presence of an alkaline stabilizer
(§1) Closed plastic container at room temperature (20° C.)
(§2) 50° C. closed plastic container
(§3) HPLC analysis of nBTPT is done as described in the procedure CEN 15688-2007.
In a first experiment, a solution of 17.5% nBTPT in PG was made and in a next step an alkaline compound was added. Subsequently, the solutions were stored in closed plastic containers for 5 days at room temperature (20° C.) and subsequently 7 days at 50° C. and the decomposition of nBTPT was followed.
In a second experiment, an alkaline compound was added to Agrotain® Ultra. Subsequently, the nBTPT solutions were stored in closed plastic containers for 5 days at room temperature (20° C.) and the decomposition of nBTPT was followed.
In a third experiment, an aqueous solution of 3.0 g nBTPT in 1 L water was made and in a next step an alkaline compound was added. Subsequently, the aqueous solutions were stored in closed plastic containers for 5 days at room temperature (20° C.) and the decomposition of nBTPT was followed.

[2] = Stability of nBTPT melt-mixed in urea granules during storage (HPLC nBTPT content)
Protocol: For pilot scale experiments applying nBTPT in urea, nBTPT, as powder or as liquid formulations, was mixed in urea in the following way: nBTPT was added to urea melt, with and/or without the presence of an alkaline stabilizer and subsequently, this mixture was granulated in a fluidized bed granulator.
nBTPT in urea granules, with and/or without the presence of an alkaline stabilizer, were produced in the urea pilot plant in Sluiskil (Yara International ASA). This pilot plant has a batch capacity—after sieving—of about 50 kg of on-spec product. It basically consists of a stirred urea preparation vessel with an active volume of about 150 litres and a fluidized bed granulator of the UFT-type, equipped with a spraying nozzle of the spiral-type or HFT-type (EP 1701798 B1, 2005, Yara International ASA).
The samples were stored under several conditions, dependent on the type of samples:
as §1
Open to air at 20° C. with a relative humidity of 80%
For some samples, an accelerated stability test was done storing these samples at elevated temperatures:
40° C. closed plastic container
as §2
(§4) 70° C. closed plastic container
as §3
In the first experiment, 500 ppm nBTPT powder was added into urea melt, with and/or without the presence of an alkaline stabilizer, and in a next step this melt composition was converted into urea granules in a fluidized bed granulator. Subsequently, the granules were stored for 98 days at 40° C. in closed plastic containers and the decomposition of nBTPT was followed.
In a second experiment, the effect of other alkaline stabilizers such as CaO and CaCO3 was shown in comparison with NaOH. 500 ppm nBTPT powder was added into urea melt, containing an alkaline stabilizer, and in a next step, this melt composition was converted into urea granules in a fluidized bed granulator. Subsequently, the granules were stored for 109 days at 50° C. in closed plastic containers and the decomposition of nBTPT was followed.
On top of that, the granules were also stored for 1564 days (more than 4 years!) at room temperature (20° C.) in closed plastic containers and the decomposition of nBTPT was followed. […] With the addition of 1% CaO or CaCO3 a recovery of nBTPT higher than 40% was found after a long storage period of more than 4 years at room temperature.
In a third experiment, 500 ppm nBTPT powder was added into a urea melt, with and/or without the presence of 0.1% B as borax, and in a next step this melt composition was converted into urea granules in a fluidized bed granulator. Subsequently, the granules were stored for 57 days at 20° C./80% R.H. in open plastic containers and the decomposition of nBTPT was followed.
In a fourth experiment, 600 ppm nBTPT powder was added into a urea melt, with and/or without the presence of an alkaline stabilizer, and in a next step this melt composition was converted into urea granules in a fluidized bed granulator. Subsequently, the granules were stored for 15 days at 70° C. in closed plastic containers and the decomposition of nBTPT was followed.

[3] = Stability of nBTPT applied on moisturized urea granules during storage (HPLC nBTPT content); conditions: vs no stabilizer, closed plastic containers, 70° C., 15 days (FIG. 6)
Protocol: For lab scale experiments for applying nBTPT on urea, nBTPT, as powder or as liquid formulations, was applied onto urea by adding 1.2 kg of urea to a lab scale drum. In a next step, the nBTPT material, with and/or without the presence of an alkaline stabilizer, was slowly added. A residence time of 10 minutes was applied and the rotating speed of the drum was consequently the same in each experiment. Larger scale experiments with amounts up to 40 kg of fertilizer material were performed in a concrete mixer.
as §4, §3
600 ppm nBTPT powder was mixed with and/or without the presence of an alkaline stabilizer and subsequently added on urea granules, which were moisturized from 0.20% H2O to 0.60% H2O. This moisturization was done to create a higher moisture level of the urea granules to simulate moisture take up during storage in market conditions.
Subsequently, the urea granules were stored for 15 days at 70° C. in closed plastic containers and the decomposition of nBTPT was followed.

## CCCCNP(N)(N)=S [nBTPT, N-(n-butyl) thiophosphoric triamide]
[1]; 17.5% nBTPT in propylene glycol (PG) + 5% CaO vs none, 5 days at 20° C. then 7 days at 50° C. (FIG. 7)
  effect on the stability of nBTPT in solution: negative effect
[1]; 17.5% nBTPT in propylene glycol (PG) + 5% NaOH vs none, 5 days at 20° C. then 7 days at 50° C. (FIG. 7)
  effect on the stability of nBTPT in solution: negative effect
[1]; aqueous solution 3 g nBTPT/L water + 1% CaO vs none, 5 days at 20° C. (FIG. 9)
  effect on the stability of nBTPT in solution: negative effect
[1]; aqueous solution 3 g nBTPT/L water + 1% Na2CO3 vs none, 5 days at 20° C. (FIG. 9)
  effect on the stability of nBTPT in solution: negative effect
[1]; aqueous solution 3 g nBTPT/L water + 1% NaHCO3 vs none, 5 days at 20° C. (FIG. 9)
  effect on the stability of nBTPT in solution: negative effect
[1]; aqueous solution 3 g nBTPT/L water + 1% NaOH vs none, 5 days at 20° C. (FIG. 9)
  effect on the stability of nBTPT in solution: negative effect
[2]; 500 ppm nBTPT powder in urea + 1% CaCO3, compared with urea + 500 ppm NaOH, closed plastic containers, 50° C., 109 days (FIG. 2)
  stability of nBTPT in urea: even higher stability
[2]; 500 ppm nBTPT powder in urea + 1% CaCO3, compared with urea + 500 ppm NaOH, closed plastic containers, room temperature (20° C.), 1564 days (FIG. 3)
  stability of nBTPT in urea: even higher stability
[2]; 500 ppm nBTPT powder in urea + 1% CaO, compared with urea + 500 ppm NaOH, closed plastic containers, 50° C., 109 days (FIG. 2)
  stability of nBTPT in urea: even higher stability
[2]; 500 ppm nBTPT powder in urea + 1% CaO, compared with urea + 500 ppm NaOH, closed plastic containers, room temperature (20° C.), 1564 days (FIG. 3)
  stability of nBTPT in urea: even higher stability
[2]; 500 ppm nBTPT powder in urea + NaOH (200, 500, 1000 ppm) vs no NaOH, closed plastic containers, 40° C., 98 days, stability increases with NaOH dosage (FIG. 1)
  effect on the stability of nBTPT in urea granules during storage: positive effect
[2]; 600 ppm nBTPT powder in urea + 1% CaCO3 vs no stabilizer, closed plastic containers, 70° C., 15 days (FIG. 5)
  effect on the stability of nBTPT in urea granules during storage: big positive effect
[2]; 600 ppm nBTPT powder in urea + 1% CaO vs no stabilizer, closed plastic containers, 70° C., 15 days (FIG. 5)
  effect on the stability of nBTPT in urea granules during storage: big positive effect
[2]; bagged conditions without the presence of a head space (exclusion of moisture and atmospheric gasses)
  stability of the urease inhibitor in the composition according to the invention: further increased
[2]; nBTPT powder in urea + 0.1% B as borax vs no borax, open plastic containers, 20° C./80% R.H., 57 days (FIG. 4)
  effect on the stability of nBTPT in urea granules during storage: big positive effect
[3]; [600 ppm nBTPT powder + 2600 ppm MgO] on urea moisturized from 0.20% to 0.60% H2O
  effect on the stability of nBTPT on urea granules during storage: positive effect
[3]; [600 ppm nBTPT powder + 6000 ppm CaCO3] on urea moisturized from 0.20% to 0.60% H2O
  effect on the stability of nBTPT on urea granules during storage: positive effect
